Data on 1 compound can be found in publication PMC9801504, “Stable Isotopomers of myo-Inositol Uncover a Complex MINPP1-Dependent Inositol Phosphate Network” (ACS Central Science, 2022).

In this experiment the target is T1, MINPP1 (Homo sapiens, UniProt Q9UNW1).
T1 construct: recombinant, expressed in and purified from E. coli; borders and tags only in the supplement
T1 sequence (Q9UNW1 31-487): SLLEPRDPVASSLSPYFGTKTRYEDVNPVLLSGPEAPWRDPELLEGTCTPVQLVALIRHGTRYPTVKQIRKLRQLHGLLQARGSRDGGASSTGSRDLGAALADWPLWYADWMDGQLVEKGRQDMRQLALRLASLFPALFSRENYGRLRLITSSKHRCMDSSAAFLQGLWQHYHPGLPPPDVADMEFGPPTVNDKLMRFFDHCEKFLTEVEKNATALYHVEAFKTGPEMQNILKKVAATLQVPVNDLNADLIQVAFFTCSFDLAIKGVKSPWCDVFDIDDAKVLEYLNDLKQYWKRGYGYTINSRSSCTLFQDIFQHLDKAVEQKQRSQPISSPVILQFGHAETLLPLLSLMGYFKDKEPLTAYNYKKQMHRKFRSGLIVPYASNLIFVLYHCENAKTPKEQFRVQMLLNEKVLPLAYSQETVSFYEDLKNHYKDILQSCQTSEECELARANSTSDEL
Nature of the experiment: 2D NMR of dephosphorylation of [[…]6]InsP5[2OH]. It is filed as biochemical. The settings on record: read-out: apparent IC50.

As to `O=P(O)(O)O[C@H]1[C@H](OP(=O)(O)O)[C@@H](OP(=O)(O)O)[C@H](OP(=O)(O)O)[C@@H](OP(=O)(O)O)[C@H]1OP(=O)(O)O` [InsP6], the IC50 stood at 2 µM.
